Measurements reported in patent publication US5843988A, “Cyclopropachromencarboxylic acid derivatives” (Suntory Limited, priority 1995, dated 1998).
Where two headings read alike, the source gives them in different places.

Biological target: T1, rat mGluR1 (metabotropic glutamate receptor 1) (Rattus norvegicus, UniProt P23385)
T1 construct: expressed in transfected cells; host or cells: CHO (Chinese hamster ovary) cells
Assay: mGluR1 antagonistic effect as assessed with reference to intracellular Ca2+ response in mGluR1 expressing CHO cells (Fura-2 fluorometry)
Format: cell-based
Settings: Intracellular Ca2+ release induced by 10 μM glutamic acid
From the text: Evaluation Example 1. mGluR1 antagonistic effect as assessed with reference to intracellular Ca^2+ response in mGluR1 expressing CHO cells
Since mGluR1 (metabotropic glutamate receptor 1) induces release of Ca^2+ from intracellular Ca^2+ storage sites via the formation of inositol-1,4,5-triphosphate in the pathway of the intracellular signaling system, it is possible to evaluate the antagonistic activity of the compounds of the invention against mGluR1 with reference to intracellular Ca^2+ response in CHO cells in which recombinant rat mGluR1 gene is transfected.
The present inventors applied this evaluation system to assess the mGluR1 antagonistic activity of the compounds provided by this invention using CHO cells in which rat mGluR1 gene is expressed [S. Nakanishi et al.: Neuron, 8, 757 (1992)]. Intracellular Ca^2+ release induced by 10 μM glutamic acid in the presence of various concentrations of the compounds of the present invention added to culture medium was measured by fluorometry with Fura -2 [H. Sugino et al.: Brain Res., 322,127 (1984)]. The antagonistic effect against the induced intracellular Ca^2+ elevation was thus assessed by comparison with the control response in the absence of the test compounds.

[1] = read-out: 50% inhibitory concentrations (IC50), bound stated

T1 sequence (P23385 19-1199): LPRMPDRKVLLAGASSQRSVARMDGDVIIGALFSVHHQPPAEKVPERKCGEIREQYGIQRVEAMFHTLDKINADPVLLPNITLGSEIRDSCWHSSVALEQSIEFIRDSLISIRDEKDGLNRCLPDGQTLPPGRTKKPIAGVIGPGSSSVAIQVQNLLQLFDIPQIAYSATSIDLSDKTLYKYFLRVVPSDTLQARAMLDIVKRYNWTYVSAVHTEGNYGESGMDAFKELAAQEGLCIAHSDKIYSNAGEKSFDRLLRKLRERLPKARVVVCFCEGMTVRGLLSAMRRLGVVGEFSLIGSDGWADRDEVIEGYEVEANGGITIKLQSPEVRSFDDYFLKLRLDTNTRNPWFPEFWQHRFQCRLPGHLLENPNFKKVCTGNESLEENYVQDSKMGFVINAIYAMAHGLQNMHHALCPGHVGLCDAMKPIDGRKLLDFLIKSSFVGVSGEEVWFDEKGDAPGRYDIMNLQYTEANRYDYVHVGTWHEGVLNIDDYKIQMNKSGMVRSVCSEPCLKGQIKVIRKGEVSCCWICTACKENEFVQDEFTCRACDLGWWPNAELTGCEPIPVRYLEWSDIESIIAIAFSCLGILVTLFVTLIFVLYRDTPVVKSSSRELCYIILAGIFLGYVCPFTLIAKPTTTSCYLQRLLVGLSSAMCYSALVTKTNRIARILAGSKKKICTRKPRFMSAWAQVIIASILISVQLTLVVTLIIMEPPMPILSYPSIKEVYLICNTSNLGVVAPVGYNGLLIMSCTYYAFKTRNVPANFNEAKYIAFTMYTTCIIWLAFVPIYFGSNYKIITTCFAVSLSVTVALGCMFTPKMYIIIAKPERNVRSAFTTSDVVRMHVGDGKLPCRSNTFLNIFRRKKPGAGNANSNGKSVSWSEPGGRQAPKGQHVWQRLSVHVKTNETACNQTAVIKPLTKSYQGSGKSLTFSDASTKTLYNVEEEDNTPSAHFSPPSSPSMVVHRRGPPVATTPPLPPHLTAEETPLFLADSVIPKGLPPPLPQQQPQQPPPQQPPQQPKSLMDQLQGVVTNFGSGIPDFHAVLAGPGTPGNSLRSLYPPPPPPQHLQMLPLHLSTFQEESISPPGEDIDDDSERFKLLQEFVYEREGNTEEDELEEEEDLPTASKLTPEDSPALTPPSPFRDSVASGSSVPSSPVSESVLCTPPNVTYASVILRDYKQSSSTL

SMILES	IC50 (Table 3, read-out: IC50) [µM]	IC50 [1] [µM]
CCOC(=O)C12CC1C(=NO)c1ccccc1O2 (stereo not drawn) [Example 32, 1a-ethoxycarbonyl-1a, 7a-dihydro-7(1H)-hydro-xyiminocyclopropa [b]chromen]	23	≤ 100
O=C(N1CCN(c2ccc(F)cc2)CC1)C12CC1C(=NO)c1ccccc1O2 (stereo not drawn) [Example 53, 1a-(1-(4-fluorophenyl)-piperazinyl)arbonyl-1a, 7a-dihydro-7(1H)-hydroxyiminocyclopropa[b]chromen]	100	≤ 100
CC(N)(C(=O)O)c1ccc(C(=O)O)cc1 (stereo not drawn) [MCPG, reference compound]	700	–
CC(C)COC(=O)C12CC1C(=NO)c1ccccc1O2 (stereo not drawn) [Example 34]	20	≤ 100
N[C@H](C(=O)O)c1ccc(C(=O)O)cc1 [(S)-4CPG, reference compound]	200	–

Other lines, results leading:

IC50 (Table 3, read-out: IC50) [µM]	IC50 [1] [µM]	SMILES
20	≤ 100	CN(Cc1ccccc1)C(=O)C12CC1C(=NO)c1ccccc1O2 (stereo not drawn) [Example 43, 1a-(N-benzyl-N-methyl)carbamoyl-1a, 7a-dihydro-7(1H)-hydroxyiminocyclopropa[b]chromen]
3	≤ 100	O=C(Nc1ccccc1)C12CC1C(=NO)c1ccccc1O2 (stereo not drawn) [Example 35, 1a-(N-phenyl)carbamoyl-1a, 7a-dihydro-7(1H)-hydroxyiminocyclopropa[b]chromen]
100	≤ 100	COc1ccc(N(C)C(=O)C23CC2C(=NO)c2ccccc2O3)cc1 (stereo not drawn) [Example 41, 1a-(N-4-methoxyphenyl-N-methyl)carbamoyl-1a, 7a-dihydro-7(1H)-hydroxyimino-cyclopropa[b]chromen]
100	≤ 100	CN(C(=O)C12CC1C(=NO)c1ccccc1O2)c1ccc(Cl)cc1 (stereo not drawn) [Example 42, 1a-(N-4-chlorophenyl-N-methyl)-carbamoyl-1a, 7a-dihydro-7(1H)-hydroxyiminocyclopropa-[b]chromen]
10	≤ 100	CN(C(=O)C12CC1C(=NO)c1ccccc1O2)c1ccccc1 (stereo not drawn) [Example 36, 1a-(N-methyl-N-phenyl)carbamoyl-1a, 7a-dihydro-7(1H)-hydroxyiminocyclopropa[b]chromen]
